From patent US8513232B2, “Substituted spirocyclic piperidine derivatives as histamine-3 (H3) receptor ligands” (Cephalon, Inc., priority 2008, dated 2013)
pKi: −log10 of the molar value. Like-named read-outs stand apart in the source and are kept apart here.

Columns and labels:
[1] = target: T1, rat histamine H3 receptor (Rattus norvegicus, UniProt Q9QYN8); test: Rat H3 radioligand binding ([3H]-N-alpha-methylhistamine, SPA)
T1 construct: encoding the entire 445-amino-acid rat histamine H3 receptor; expressed in transfected cells; membrane preparation
T1 sequence (Q9QYN8 whole entry): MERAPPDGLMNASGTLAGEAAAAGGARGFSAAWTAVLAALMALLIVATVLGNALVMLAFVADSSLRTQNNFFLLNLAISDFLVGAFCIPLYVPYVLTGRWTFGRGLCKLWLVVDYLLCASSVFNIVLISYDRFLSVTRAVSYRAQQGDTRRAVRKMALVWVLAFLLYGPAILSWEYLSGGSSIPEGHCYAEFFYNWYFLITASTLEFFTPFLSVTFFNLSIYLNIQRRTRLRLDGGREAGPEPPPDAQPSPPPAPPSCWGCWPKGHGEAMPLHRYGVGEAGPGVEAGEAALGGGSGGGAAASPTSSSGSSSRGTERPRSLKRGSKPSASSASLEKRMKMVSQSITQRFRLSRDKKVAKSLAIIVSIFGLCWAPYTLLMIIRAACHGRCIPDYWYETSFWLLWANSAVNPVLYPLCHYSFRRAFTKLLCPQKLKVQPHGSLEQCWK
In short: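 Membranes from CHO-A3 cells stably expressing full-length rat H3 receptor (10 μg protein/well) incubated 4 h at room temperature, protected from light, with ~1 nM [3H]-N-alpha-methylhistamine and compound (0.01 nM-30 μM) in 50 mM Tris HCl pH 7.4, 5 mM MgCl2, 0.1% BSA. Binding read by SPA; 10 μM clobenpropit defined non-specific binding.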

human H3 receptor = target: T2, human H3 receptor (Homo sapiens, UniProt Q9Y5N1); test: Human H3 radioligand binding ([3H]-N-alpha-methylhistamine, SPA); conditions: read-out: Human H3 Ki
T2 construct: expressed in transfected cells
T2 sequence (Q9Y5N1 whole entry): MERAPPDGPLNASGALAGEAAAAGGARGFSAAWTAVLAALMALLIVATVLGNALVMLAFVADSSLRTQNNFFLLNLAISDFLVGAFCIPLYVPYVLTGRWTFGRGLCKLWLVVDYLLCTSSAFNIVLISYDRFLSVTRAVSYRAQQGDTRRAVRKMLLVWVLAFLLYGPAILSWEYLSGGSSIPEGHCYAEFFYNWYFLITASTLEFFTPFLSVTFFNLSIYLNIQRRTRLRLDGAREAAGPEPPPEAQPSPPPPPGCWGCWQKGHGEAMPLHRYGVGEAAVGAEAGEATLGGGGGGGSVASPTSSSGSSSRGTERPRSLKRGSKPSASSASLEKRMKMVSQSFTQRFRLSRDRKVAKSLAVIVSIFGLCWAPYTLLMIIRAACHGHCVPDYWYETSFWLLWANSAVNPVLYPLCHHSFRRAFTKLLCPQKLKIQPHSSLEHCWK
In short: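 SPA competition binding on membranes from CHO cells stably expressing human H3 receptor (10 μg protein/well) with ~1 nM [3H]-N-alpha-methylhistamine and compound at 0.01 nM-30 μM. Incubation 4 h at room temperature in 50 mM Tris-HCl pH 7.4, 5 mM MgCl2, 0.1% BSA; non-specific binding defined with 10 μM clobenpropit.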

[2] = rat H3 binding, Table D, read-out: Rat H3 Ki

| Structure (SMILES) | melting point | pKi ([1]; read-out: Rat H3 kI) | pKi (human H3 receptor) | pKi [1, 2] | pKi (human H3 receptor; human H3 binding, Table D) |
| --- | --- | --- | --- | --- | --- |
| OC1CCC(c2ccc3c(c2)COC2(CCN(C4CCC4)CC2)O3)CC1 (stereo not drawn) [Example 531] | 113 to 115 °C | > 6.70 | > 6.70 | – | – |
| OC1(c2ccc3c(c2)CCC2(CCN(C4CCC4)CC2)O3)CCSCC1 [Example 532] | 146 to 148 °C | > 6.70 | > 6.70 | – | – |
| c1ccc(COc2ccc(-c3ccc4c(c3)CCC3(CCN(C5CCC5)CC3)O4)cn2)cc1 [Example 533] | 115 to 117 °C | > 6.70 | > 6.70 | – | – |
| O=C1CCC(c2ccc3c(c2)CCC2(CCN(C4CCC4)CC2)O3)CN1 (stereo not drawn) [Example 534] | 292 to 294 °C | > 6.70 | > 6.70 | – | – |
| O=S1(=O)CCC(O)(c2ccc3c(c2)CCC2(CCN(C4CCC4)CC2)O3)CC1 [Example 535] | 213 to 215 °C | > 6.70 | > 6.70 | – | – |
| OC(c1ccc2c(c1)COC1(CCN(C3CCC3)CC1)O2)C1CCCC1 (stereo not drawn) [Example 536] | 148 to 150 °C | > 6.70 | > 6.70 | – | – |
| C(=C\c1ccc2c(c1)CCC1(CCN(C3CCC3)CC1)O2)/c1ccc(OCc2ccccc2)nc1 [Example 537] | 236 to 238 °C | < 6.00 | 6.00 to 6.70 | – | – |
| O=C1CCC(Cc2ccc3c(c2)COC2(CCN(C4CCC4)CC2)O3)CN1 (stereo not drawn) [Example 539] | 219 to 221 °C | > 6.70 | > 6.70 | – | – |
| CC(=O)OC1(c2ccc3c(c2)COC2(CCN(C4CCC4)CC2)O3)CC(C(=O)N2CCCC2)C1 (stereo not drawn) [Example 541] | 72 to 74 °C | > 6.70 | > 6.70 | – | – |
| COC1(c2ccc3c(c2)COC2(CCN(C4CCC4)CC2)O3)CCS(=O)(=O)CC1 [Example 542] | 199 to 201 °C | > 6.70 | > 6.70 | – | – |
| Cc1cc2c(cc1-c1ccc(=O)[nH]c1)COC1(CCN(C3CCC3)CC1)O2 [Example 543] | 239 to 240 °C | 6.00 to 6.70 | > 6.70 | – | – |
| COc1ccc(-c2cc3c(cc2C)OC2(CCN(C4CCC4)CC2)OC3)cn1 [Example 544] | 96 to 98 °C | > 6.70 | > 6.70 | – | – |
| COC(c1ccc2c(c1)COC1(CCN(C3CCC3)CC1)O2)C1CCS(=O)(=O)CC1 (stereo not drawn) [Example 545] | 178 to 180 °C | > 6.70 | > 6.70 | – | – |
| Cn1ccc(-c2ccc3c(c2)COC2(CCN(C4CCC4)CC2)O3)cc1=O [Example 547] | 208 to 209 °C | > 6.70 | > 6.70 | – | – |
| c1ccc(COc2cc(-c3ccc4c(c3)COC3(CCN(C5CCC5)CC3)O4)ccn2)cc1 [Example 548] | 120 to 125 °C | > 6.70 | > 6.70 | – | – |
| CN1CC(c2ccc3c(c2)COC2(CCN(C4CCC4)CC2)O3)CCC1=O (stereo not drawn) [Example 550] | 120 to 125 °C | > 6.70 | > 6.70 | – | – |
| COc1ccc(-c2ccc3c(c2C)COC2(CCN(C4CCC4)CC2)O3)cn1 [Example 551] | 231 to 232 °C | > 6.70 | > 6.70 | – | – |
| Cc1c(-c2ccc(=O)[nH]c2)ccc2c1COC1(CCN(C3CCC3)CC1)O2 [Example 552] | 246 to 249 °C | > 6.70 | > 6.70 | – | – |
| O=c1ccc(-c2ccc3c(c2)COC2(CCN(C4CCC4)CC2)O3)cn1Cc1ccccc1 [Example 553] | 193 to 196 °C | > 6.70 | > 6.70 | – | – |
| OC1(c2ccc3c(c2)COC2(CCN(C4CCC4)CC2)O3)CCC(F)(F)CC1 [Example 554] | 186 to 187 °C | > 6.70 | > 6.70 | – | – |
| O=c1ccc(-c2ccc3c(c2)COC2(CCN(C4CCC4)CC2)O3)cn1CC(F)F [Example 555] | 65 to 70 °C | > 6.70 | > 6.70 | – | – |

| Structure (SMILES) | melting point | pKi ([1]; read-out: Rat H3 kI) | pKi (human H3 receptor) | pKi [1, 2] | pKi (human H3 receptor; human H3 binding, Table D) |
| --- | --- | --- | --- | --- | --- |
| COC1(c2ccc3c(c2)COC2(CCN(C4CCC4)CC2)O3)CCC(F)(F)CC1 [Example 556] | 116 to 118 °C | > 6.70 | > 6.70 | – | – |
| Cc1c(-c2cc[nH]c(=O)c2)ccc2c1COC1(CCN(C3CCC3)CC1)O2 [Example 558] | > 300 °C | > 6.70 | > 6.70 | – | – |
| COC1(c2ccc3c(c2)COC2(CCN(C4CCC4)CC2)O3)CCC1 [Example 559] | < 50 °C | > 6.70 | > 6.70 | – | – |
| O=C1CCC(c2ccc3c(c2)COC2(CCN(C4CCC4)CC2)O3)CN1CC(F)F (stereo not drawn) [Example 560] | 120 to 126 °C | 6.00 to 6.70 | 6.00 to 6.70 | – | – |
| C=CCOC1(c2ccc3c(c2)COC2(CCN(C4CCC4)CC2)O3)CC(C(=O)N2CCCC2)C1 (stereo not drawn) [Example 561] | 49 to 51 °C | 6.00 to 6.70 | 6.00 to 6.70 | – | – |
| CC(C)N1CC(c2ccc3c(c2)COC2(CCN(C4CCC4)CC2)O3)CCC1=O (stereo not drawn) [Example 563] | 129 to 134 °C | > 6.70 | > 6.70 | – | – |
| O=C1CC(c2ccc3c(c2)COC2(CCN(C4CCC4)CC2)O3)CCN1 (stereo not drawn) [Example 565] | 182 to 184 °C | > 6.70 | > 6.70 | – | – |
| Nc1ccc(-c2ccc3c(c2)COC2(CCN(C4CCC4)CC2)O3)cn1 [Example 566] | 201 to 203 °C | > 6.70 | > 6.70 | – | – |
| O=C(C1CC(O)(c2ccc3c(c2)CCC2(CCN(C4CCC4)CC2)O3)C1)N1CCCC1 (stereo not drawn) [Example 569] | 180 to 181 °C | > 6.70 | > 6.70 | – | – |
| O=C(O)c1cc(-c2ccc3c(c2)COC2(CCN(C4CCC4)CC2)O3)cs1 [Example 570] | 230 to 240 °C (dec.) | – | – | > 6.70 | > 6.70 |
| CC(C)C(=O)NC1CCN(c2ccc3c(c2)CCC2(CCN(C4CCC4)CC2)O3)CC1 [Example 571] | 199.3 to 201.2 °C | – | – | > 6.70 | > 6.70 |
| O=C(NC[C@H]1CCCO1)c1ccc(-c2ccc3c(c2)CCC2(CCN(C4CCC4)CC2)O3)cc1Cl [Example 572] | 62 to 64 °C | – | – | > 6.70 | > 6.70 |
| CN(C)C(=O)NC1CCN(c2ccc3c(c2)CCC2(CCN(C4CCC4)CC2)O3)CC1 [Example 573] | 204.2 to 206.4 °C | – | – | > 6.70 | > 6.70 |
| c1ncc(COc2ccc3c(c2)CCC2(CCN(C4CCC4)CC2)O3)s1 [Example 574] | 85 to 87 °C | – | – | > 6.70 | > 6.70 |
| COCCN(C)C(=O)c1ccc(-c2ccc3c(c2)CCC2(CCN(C4CCC4)CC2)O3)cc1Cl [Example 575] | 101 to 104 °C | – | – | > 6.70 | > 6.70 |
| CN(C)C(=O)N1CCC(COc2ccc3c(c2)CCC2(CCN(C4CCC4)CC2)O3)CC1 [Example 576] | 230 to 232 °C | – | – | > 6.70 | > 6.70 |
| COCCN(C)C(=O)c1ccc(-c2ccc3c(c2)COC2(CCN(C4CCC4)CC2)O3)cc1Cl [Example 577] | 105 to 107 °C | – | – | > 6.70 | > 6.70 |
| COCCNC(=O)c1cc(-c2ccc3c(c2)COC2(CCN(C4CCC4)CC2)O3)cs1 [Example 578] | 145 to 146 °C | – | – | > 6.70 | > 6.70 |
| O=C(NC[C@H]1CCCO1)c1ccc(-c2ccc3c(c2)COC2(CCN(C4CCC4)CC2)O3)cc1Cl [Example 579] | 155 to 157 °C | – | – | > 6.70 | > 6.70 |
| O=C(N[C@H]1CCOC1)c1ccc(-c2ccc3c(c2)CCC2(CCN(C4CCC4)CC2)O3)cc1 [Example 580] | 196 to 198 °C | – | – | > 6.70 | > 6.70 |
| CNC(=O)c1cc(-c2ccc3c(c2)CCC2(CCN(C4CCC4)C2)O3)ccc1Cl (stereo not drawn) [Example 581] | 100 to 103 °C | – | – | 6.00 to 6.70 | > 6.70 |
